US12428360B2, “Abating unwanted emulsion polymerization during extractive distillation of conjugated diene monomers” (ECOLAB USA INC., priority 2022, dated 2025)

Assay: Isoprene polymerization test at 95° C. in heptane (heptane phase, turbidity method)
Procedure: The commercial isoprene was passed through an alumina column to remove stabilizer 4-tert-butylcatechol. A 100 mL jar was charged with 0.2 g active polymerization inhibitor, 40 mL heptane, 40 mL DMF, and a stir bar. The above mixture was stirred at room temperature for 30 minutes and settled for 10 minutes.
Heptane phase: A 100 mL jar was charged with 5.0 mL top layer of previous settled two layers' mixture, 1 mL AIBN (0.0004 g/mL) solution, isoprene 50 g. Hexane was added to make a total weight of 100 g solution. About 13 ml of the above mixture was added to 12 pressure tubes with a stir bar and heated to 95° C. After 30 minutes, and every 30 minutes thereafter, two tubes were retrieved from the block and the polymerization reaction was quenched by cooling in an ice bath. The cooled polymer solutions were immediately diluted with toluene. The soluble polymer in the liquid was determined by turbidity method. Results can be seen in FIG. 2. The data used to generate the trend lines in FIG. 2 can be seen in Table 2.

With `CCC(C)Nc1ccc(NC(C)CC)cc1` (stereo not shown) [PDA, di-sec-butyl-4,4′-phenylenediamine] the “polymerization growth in Heptane phase (polyisoprene)” value (“polymerization growth” for short) (Time 0, AIBN initiator) was 0 w/w %, the “polymerization growth” value (Time 30 (minutes per method), AIBN initiator) was 0.10% w/w % and the “polymerization growth” value (Time 60 (minutes per method), AIBN initiator) was 0.24% w/w %. For the same compound, the “polymerization growth” value (Time 90 (minutes per method), AIBN initiator) was 0.45% w/w %, the “polymerization growth” value (Time 120 (minutes per method), AIBN initiator) was 0.83% w/w % and the “polymerization growth” value (Time 180 (minutes per method), AIBN initiator) was 1.05% w/w %. For the same compound, the “polymerization growth” value (Time 240 (minutes per method), AIBN initiator) was 1.20% w/w %.
